According to patent publication US6024955A, “Peptides and monoclonal antibodies” (Toagosei Co. Ltd., priority 1995, dated 2000):

Columns and labels:
[1] = system: Human fibrosarcoma (HT-1080); experiment: Antitumor test, joint use with an existing carcinostatic, HT-1080 in nude mice; conditions: mitomycin alone, 6 mg/kg, tail vein
Experimental: Human fibrosarcoma (HT-1080) subcutaneously subcultured in nude mice was cut out in a section of about 2 mm square and inoculated subcutaneously into 6 nude mice of another group using a trocar. On the next day of the inoculation, the existing carcinostatic mitomycin (3 mg/kg) or cisplatin (5 mg/kg) was injected into the tail vein once, and the monoclonal antibody of the invention was injected into the tail vein at a dose of 12.5 μg/mouse every 4 days from the next day of the transplantation.
In those groups which received an existing carcinostatic alone, 3 or 6 mg/kg of mitomycin or 5 or 10 mg/kg of cisplatin was administered in a similar manner as employed in the joint administration groups (i.e. every 4 days into the tail vein).
In the group which received the monoclonal antibody alone, 12.5 μg/mouse of the monoclonal antibody was administered similarly (i.e. every 4 days into the tail vein).
The tumor volume of each mouse was calculated by measuring the diameter of the tumor with the passage of time. At the same time, changes in body weight were also observed.

MV833 antibody = conditions: 20 μM peptide solution coated on plate
Experimental: The 67 peptides synthesized by the above procedures correspond to the entire region of human VPF 121. Therefore, by examining the reactivity of the 67 peptides with MV833 antibody, it is possible to identify the portion of VPF with which MV833 reacts. Then, the reactivity of the 67 peptides with MV833 antibody was examined by an enzyme immunoassay. Briefly, 20 μM peptide solutions each containing one of the 67 peptides were added to a 96-well NOS plate (Coaster) and left at room temperature for 2 hours. After each well was washed with 0.1% BSA-PBS 3 times, 2% BSA-PBS was added thereto and left at room temperature for 1 hour. After the removal of 2% BSA-PBS, MV833 (in 1% BSA-PBS solution) was added to the plate and left at room temperature for 1 hour. After each well was washed with 0.1% BSA-PBS 6 times, peroxidase-labelled sheep anti-mouse IgG (Amersham) (in 0.1% BSA-PBS) was added thereto and left at room temperature for 1 hour. After each well was washed with 0.1% BSA-PBS 6 times, 0.2 M Tris-citrate buffer (pH 5.2) containing 8.3 mg/ml orthophenylenediamine dihydrochloride and 0.01% hydrogen peroxide was added for coloring. The reaction was terminated by adding 2 N sulfuric acid and then absorbance (OD490/650) was measured.

Compound	antitumor activity (tumor volume, FIG. 3) [1]	changes in body weight (FIG. 4) [1]	reactivity with MV833 antibody (absorbance OD490/650, FIG. 1) (MV833 antibody)
CO[C@@]12[C@H](COC(N)=O)C3=C(C(=O)C(C)=C(N)C3=O)N1C[C@@H]1N[C@@H]12 [mitomycin]	strong antitumor activity was observed	loss in body weight was also observed	–
FKPSCVPLMRCG [Peptide 32]	–	–	reacted strongly
KCECRPKKDRAR [Peptide 63]	–	–	reacted strongly
KPSCVPLMRCGG [Peptide 33]	–	–	reacted strongly
SFLQHNKCECRP [Peptide 60]	–	–	reacted strongly
YIFKPSCVPLMR [Peptide 31]	–	–	reacted strongly
